Assay results taken from patent US11045669B2, “Hydroalcoholic extract of Schinus molle, cosmetic compositions comprising the same and cosmetic uses thereof” (ISP INVESTMENTS LLC, priority 2015, dated 2021).

Tests used:
[1] = tested on: Ribosomal protein S28 (RPS28); assay: RT-qPCR expression of RPS28 (housekeeping) in NHEK; assay type: cell-based, human; details: 24 h, CaCl2 1.5 mM
Method: (§1) The potential effects of a hydroethanolic extract of Schinus molle obtained in accordance with Example 2 on skin hydration and barrier function were studied in a model of normal human epidermal keratinocytes (NHEKs) by analysing the expression profile of genes specific to the differentiation of keratinocytes and lipid synthesis by an RT-qPCR (reverse transcription quantitative polymerase chain reaction) method.
(§2) • Cell type: 3rd passage NHEKs • Culture conditions: 37° C., 5% CO2 • Culture medium: keratinocyte SFM (serum free medium) supplemented with • epidermal growth factor (EGF) 0.25 ng/ml • pituitary extract (PE) 25 μg/ml • gentamicin 25 μg/ml • Test medium: keratinocyte SFM supplemented with gentamicin 25 μg/ml Tested Compounds
(§3) The normal human epidermal keratinocytes (NHEKs) were seeded and cultivated in culture medium for 24 hours. […] All the conditions were performed with n=3.
(§4) The expression of the markers was assessed by RT-qPCR on the mRNAs (messenger RNAs) extracted from the cell layers of each treatment (the replicates were pooled before the RNA extraction).
(§5) The analysis of the expression of the genes was performed with n=2 with the aid of 2 “marker quantitative PCR arrays” containing 16 genes, including 2 housekeeping (HK) genes, dedicated to research and adapted to the screening format (mQPA-NHEK-BARRIER-16, product by BIOalternatives®).
(§6) The incorporation of fluorescence in the amplified DNA is measured continuously during the course of the PCR cycles. These measurements make it possible to obtain intensity curves of the fluorescence depending on the PCR cycles and to thus evaluate a value of relative expression (RE) for each marker. The number of cycles is determined on the basis of “exit” points of the fluorescence curves. For the same analysed marker, the later a sample exits (appeared late, after a number of increased cycles), the lower is the initial number of copies of the mRNA.
(§7) The RE (relative expression) value is expressed in arbitrary units (AU) in accordance with the following formula: (½^number of cycles)×10^6 […]

[2] = tested on: Glyceraldehyde-3-phosphate dehydrogenase (GAPDH); details: NHEK, 24 h, CaCl2 1.5 mM
Method: as §1, §2, §3, §4, §5, §6, §7

Aquaporin 3 (AQP3) = assay: RT-qPCR expression of AQP3 in NHEK; assay type: cell-based, human; details: 24 h, CaCl2 1.5 mM
Method: as §1, §2, §3, §4, §5, §6, §7

[3] = tested on: Hyaluronan synthase 3 (HAS3); assay: RT-qPCR expression of HAS3 in NHEK; assay type: cell-based, human; details: 24 h, CaCl2 1.5 mM
Method: as §1, §2, §3, §4, §5, §6, §7

[4] = tested on: Acyl-CoA synthetase short-chain family member 2 (ACSS2); assay: RT-qPCR expression of ACSS2 in NHEK; assay type: cell-based, human; details: 24 h, CaCl2 1.5 mM
Method: as §1, §2, §3, §4, §5, §6, §7

[5] = tested on: Fatty acid synthase (FASN); assay: RT-qPCR expression of FASN in NHEK; assay type: cell-based, human; details: 24 h, CaCl2 1.5 mM
Method: as §1, §2, §3, §4, §5, §6, §7

[6] = tested on: Serine palmitoyltransferase, long chain base subunit 1 (SPTLC1); assay: RT-qPCR expression of SPTLC1 in NHEK; assay type: cell-based, human; details: 24 h, CaCl2 1.5 mM
Method: as §1, §2, §3, §4, §5, §6, §7

[7] = tested on: LAG1 homolog, ceramide synthase 6 (LASS6); assay: RT-qPCR expression of LASS6 in NHEK; assay type: cell-based, human; details: 24 h, CaCl2 1.5 mM
Method: as §1, §2, §3, §4, §5, §6, §7

[8] = tested on: UDP-glucose ceramide glucosyltransferase (UGCG); assay: RT-qPCR expression of UGCG in NHEK; assay type: cell-based, human; details: 24 h, CaCl2 1.5 mM
Method: as §1, §2, §3, §4, §5, §6, §7

[9] = tested on: Sphingomyelin phosphodiesterase 1, acid lysosomal (SMPD1); assay: RT-qPCR expression of SMPD1 in NHEK; assay type: cell-based, human; details: 24 h, CaCl2 1.5 mM
Method: as §1, §2, §3, §4, §5, §6, §7

[10] = tested on: Glucosidase, beta; acid (GBA); assay: RT-qPCR expression of GBA in NHEK; assay type: cell-based, human; details: 24 h, CaCl2 1.5 mM
Method: as §1, §2, §3, §4, §5, §6, §7

[11] = tested on: Sulfotransferase family, cytosolic, 2B, member 1 (SULT2B1); assay: RT-qPCR expression of SULT2B1 in NHEK; assay type: cell-based, human; details: 24 h, CaCl2 1.5 mM
Method: as §1, with “method. […]” for “method.”
as §4, §5
(§8) The incorporation of fluorescence in the amplified DNA is measured continuously during the course of the PCR cycles. These measurements make it possible to obtain intensity curves of the fluorescence depending on the PCR cycles and to thus evaluate a value of relative expression (RE) for each marker. The number of cycles is determined on the basis of “exit” points of the fluorescence curves. […]

[12] = tested on: Arachidonate 12-lipoxygenase (ALOX12); assay: RT-qPCR expression of ALOX12 in NHEK; assay type: cell-based, human; details: 24 h, CaCl2 1.5 mM
Method: as §1, with “method. […]” for “method.”
as §4, §5, §8

Claudin 1 (CLDN1) = assay: RT-qPCR expression of CLDN1 in NHEK; assay type: cell-based, human; details: 24 h, CaCl2 1.5 mM
Method: as §1, §2, §3, §4, §5, §6, §7

Filaggrin (FLG) = assay: RT-qPCR expression of FLG in NHEK; assay type: cell-based, human; details: 24 h, CaCl2 1.5 mM
Method: as §1, with “method. […]” for “method.”
as §4, §5, §8

Involucrin (IVL) = assay: RT-qPCR expression of IVL in NHEK; assay type: cell-based, human; details: 24 h, CaCl2 1.5 mM
Method: as §1, with “method. […]” for “method.”
as §4, §5, §8

[13] = tested on: Transglutaminase 1 (TGM1); assay: RT-qPCR expression of TGM1 in NHEK; assay type: cell-based, human; details: 24 h, CaCl2 1.5 mM
Method: as §1, with “method. […]” for “method.”
as §4, §5, §8

[Ca+2].[Cl-].[Cl-] [CaCl2, calcium chloride]
RPS28 expression, % Control (GAPDH) [1]: 96 % Control | RPS28 expression, % Control (RPS28) [1]: 100 % Control | RPS28 expression, % Control (mean HK) [1]: 97 % Control | GAPDH expression, % Control (GAPDH) [2]: 100 % Control | GAPDH expression, % Control (RPS28) [2]: 104 % Control | GAPDH expression, % Control (mean HK) [2]: 101 % Control | AQP3 expression, % Control (GAPDH) (Aquaporin 3 (AQP3)): 110 % Control | AQP3 expression, % Control (RPS28) (Aquaporin 3 (AQP3)): 115 % Control | AQP3 expression, % Control (mean HK) (Aquaporin 3 (AQP3)): 111 % Control | HAS3 expression, % Control (GAPDH) [3]: 108 % Control | HAS3 expression, % Control (RPS28) [3]: 112 % Control | HAS3 expression, % Control (mean HK) [3]: 108 % Control | ACSS2 expression, % Control (GAPDH) [4]: 127 % Control | ACSS2 expression, % Control (RPS28) [4]: 132 % Control | ACSS2 expression, % Control (mean HK) [4]: 128 % Control | FASN expression, % Control (GAPDH) [5]: 105 % Control | FASN expression, % Control (RPS28) [5]: 109 % Control | FASN expression, % Control (mean HK) [5]: 106 % Control | SPTLC1 expression, % Control (GAPDH) [6]: 95 % Control | SPTLC1 expression, % Control (RPS28) [6]: 99 % Control | SPTLC1 expression, % Control (mean HK) [6]: 96 % Control | LASS6 expression, % Control (GAPDH) [7]: 103 % Control | LASS6 expression, % Control (RPS28) [7]: 107 % Control | LASS6 expression, % Control (mean HK) [7]: 104 % Control | UGCG expression, % Control (GAPDH) [8]: 118 % Control | UGCG expression, % Control (RPS28) [8]: 123 % Control | UGCG expression, % Control (mean HK) [8]: 119 % Control | SMPD1 expression, % Control (GAPDH) [9]: 108 % Control | SMPD1 expression, % Control (RPS28) [9]: 113 % Control | SMPD1 expression, % Control (mean HK) [9]: 109 % Control | GBA expression, % Control (GAPDH) [10]: 123 % Control | GBA expression, % Control (RPS28) [10]: 128 % Control | GBA expression, % Control (mean HK) [10]: 124 % Control | SULT2B1 expression, % Control (GAPDH) [11]: 244 % Control | SULT2B1 expression, % Control (RPS28) [11]: 254 % Control | ALOX12 expression, % Control (GAPDH) [12]: 151 % Control | ALOX12 expression, % Control (RPS28) [12]: 158 % Control | CLDN1 expression, % Control (GAPDH) (Claudin 1 (CLDN1)): 145 % Control | CLDN1 expression, % Control (RPS28) (Claudin 1 (CLDN1)): 152 % Control | CLDN1 expression, % Control (mean HK) (Claudin 1 (CLDN1)): 147 % Control | FLG expression, % Control (GAPDH) (Filaggrin (FLG)): 151 % Control | FLG expression, % Control (RPS28) (Filaggrin (FLG)): 157 % Control | IVL expression, % Control (GAPDH) (Involucrin (IVL)): 175 % Control | IVL expression, % Control (RPS28) (Involucrin (IVL)): 183 % Control | TGM1 expression, % Control (GAPDH) [13]: 274 % Control | TGM1 expression, % Control (RPS28) [13]: 285 % Control
